The values that follow come from patent US20150344407A1, “FENDILINE DERIVATIVES AND METHODS OF USE THEREOF” (THE BOARD OF REGENTS OF THE UNIVERSITY OF TEXAS SYSTEM, priority 2012, published 2015).

Where a name gives a salt, the structure may show the parent alone.

Experiment [1] has as its target T1, GFP-tagged K-rasG12V (oncogenic K-ras) in MDCK cells (Homo sapiens, UniProt P01116, G12V).
T1 construct: mGFP-tagged full length oncogenic mutant K-Ras (GFP-K-RasG12V); expressed in transfected cells
Put plainly: K-ras mislocalization, confocal fluorescence microscopy with densitometric analysis. The format is cell-based, canine. To be noted: 48 hours, MDCK cells stably expressing GFP-tagged K-rasG12V, normalized to vehicle-treated control; for inhibition at 4 µM: 4 μM compound, read-out: % Mislocalization of K-ras when treated with 4 μM compound. As for the experimental part: FIGS. 1 & 2—Representative images showing degree of K-ras mislocalization with compound treatment (images corresponds with column 3 of Table 2). MDCK cells stably expressing GFP-tagged K-rasG12V were treated with vehicle or compound (4 μM) for 48 hours and fixed with 4% paraformaldehyde. The coverslips were mounted in Mowiol and imaged by confocal microscopy (Nikon A1) using a 60× objective. The number above each image corresponds the fendiline derivative code.
(§1) To determine the effect of compounds on localization of K-ras, Mardine Darby canine kidney epithelial (MDCK) cells stably expressing GFP-tagged K-rasG12V (oncogenic K-ras) grown on cover slips were treated with vehicle or compound (4 μM) for 48 hours and fixed with 4% paraformaldehyde. The coverslips were mounted in Mowiol and imaged by confocal microscopy (Nikon A1) using a 60× objective. Images were analyzed by ImageJ software. Densitometric analysis was performed on images to determine the degree of K-ras mislocalization. To determine the effect of compounds on K-ras function, MDCK cells stably expressing GFP-tagged K-rasG12V were treated with vehicle or compound (4 μM) for 48 hours. Following treatment, whole cell lysates were prepared and subjected SDS-PAGE and western blotting to quantify the level of phosphorylated ERK, a protein activated downstream of K-ras. All calculations were normalized to vehicle-treated control.
Fluorescence microscopy: 2×10^5 or 1×10^5 cells/well were seeded in 6- or 12-well cell culture plates, respectively, containing glass coverslips. 24 h after seeding, fresh medium containing 1% vehicle (Dimethyl sulfoxide, DMSO) or 4 μM test compound (1:100 dilution, such that DMSO was 1%) was added and incubated for 48 h, following which the cells were fixed with 4% paraformaldehyde and coverslips were mounted in Mowiol. Cells were imaged in the GFP wavelength (488 nm) using a confocal microscope (Nikon A1) with 60× objective. Images were saved in tagged imaged file format (tiff) and analyzed by ImageJ software. The densitometric ratio of plasma membrane localized K-Ras versus total K-Ras was calculated and normalized to vehicle-treated control.

Experiment [2] has as its system phosphorylated ERK, a protein activated downstream of K-ras. Put plainly: Western immunoblotting for pERK (inhibition of ERK activation). Conditions: Canis lupus familiaris; 4 μM compound, 48 hours, MDCK cells stably expressing GFP-tagged K-rasG12V; whole cell lysates; normalized to vehicle-treated control; read-out: % Inhibition of ERK activation when treated with 4 μM compound. The format is cell-based, canine. As for the experimental part:
as §1
Western Immunoblotting for pERK: 2×10^5 cells/well were seeded in 6-well cell culture plates. 24 h after seeding, fresh medium containing 1% vehicle (DMSO) or 4 μM test compound (1:100 dilution, such that DMSO was 1%) was added and incubated for 48 h. Cells were lysed in Buffer B (50 mM Tris [pH 7.5], 75 mM NaCl, 25 mM NaF, 5 mM MgCl2, 5 mM EGTA, 1 mM dithiothreitol, 100 μM NaVO4, 1% Nonidet P-40 plus protease inhibitors). SDS-PAGE and immunoblotting with the anti-phospho-p44/42 mitogen-activated protein kinase (MAPK) (ERK1/2) antibody was performed using 20 μg of each whole cell lysate. Signal was detected by enhanced chemiluminescence (SuperSignal; Pierce, Thermo Fisher Scientific, Rockford, Ill.) and imaged by FluorChemQ (Alpha Inotech, San Leandro, Calif.). Quantification of intensities was performed using FluorChemQ software. Results were normalized to vehicle-treated control.
In general terms: A western blot detects proteins with antibodies after separation by electrophoresis.

As to `CC(CNCC(c1ccccc1)c1ccccc1)c1ccccc1` (centres unmarked) [Compound 07, N-(2,2-diphenylethyl)-2-phenylpropan-1 amine hydrochloride], the inhibition at 4 µM in experiment [1] came out at 21.9%. Regarding `C[C@@H](NC/C=C(/c1ccccc1)c1ccc(N)cc1)c1ccccc1` [Compound 50, (R,Z)-4-(1-phenyl-3-((1-phenylethyl)amino)prop-1-en-1-yl)aniline], the inhibition at 4 µM amounted to 6.61% in experiment [1] and 22.6% in experiment [2]. The like results for `C[C@H](OC/C=C/c1ccccc1)c1ccccc1` [Compound 25, (S,E)-(1-(cinnamyloxy)ethyl)benzene] were, in that order, 33.9% and 56.8%.

Turning to `C[C@@H](NCCC(c1ccccc1)c1ccccc1)c1ccccc1.Cl` [Compound 08, (R)-3,3-diphenyl-N-(1-phenylethyl)propan-1-amine hydrochloride], the “% Mislocalization of K-ras when treated with 4 μM compound” value in experiment [1] was 36.05%. In addition, in experiment [2], the inhibition at 4 µM was found to be 38.2%. Take `c1ccc(CNCCC(c2ccccc2)c2ccccc2)cc1` [Compound 10, N-benzyl-3,3-diphenylpropan-1-amine]: the inhibition at 4 µM in experiment [1] was determined as 20.2%. Consider `C[C@@H](NCC=C(c1ccccc1)c1ccccc1)c1ccccc1` [Compound 16, (R)-3,3-diphenyl-N-(1-phenylethyl)prop-2-en-1-amine], for which the inhibition at 4 µM is 39.3% in experiment [1] and 58.4% in experiment [2].

Take `COC(=O)[C@H](NC/C=C/c1ccccc1)c1ccccc1` [Compound 40, (R)-methyl 2-(cinnamylamino)-2-phenylacetate]: the inhibition at 4 µM turned out to be 9.46% in experiment [1] and 11% in experiment [2]. With `CC(C)=CCC/C(C)=C/CN[C@H](C)c1ccccc1` [Compound 21, (R,E)-3,7-dimethyl-N-(1-phenylethyl)octa-2,6-dien-1-amine], the inhibition at 4 µM came to 8.29% in experiment [1] and 3.75% in experiment [2]. The like results for `C[C@@H](NCC=C(c1ccccc1)c1ccccc1)c1ccc(N)cc1` [Compound 48, (R)-4-(1-((3,3-diphenylallyl)amino)ethyl)aniline] were, in that order, 28.2% and 53.5%.

Take `C[C@@H](NC/C=C/c1ccccc1)c1ccccc1` [Compound 18, (R,E)-3-phenyl-N-(1-phenylethyl)prop-2-en-1-amine]: the values for the inhibition at 4 µM in experiment [1] and in experiment [2] were 17.6% and -2.54%, respectively. For `C[C@@H](NC/C=C/c1ccc2ccccc2c1)c1ccccc1` [Compound 33, (R,E)-3-(naphthalen-2-yl)-N-(1-phenylethyl)prop-2-en-1-amine], in that order: 1.53% and 15.7%. As for `C[C@H](NCCC(c1ccccc1)c1ccccc1)c1ccccc1.Cl` [Compound 09, (S)-3,3-diphenyl-N-(1-phenylethyl)propan-1-amine hydrochloride], in experiment [1], the “% Mislocalization of K-ras when treated with 4 μM compound” value worked out at 20.41%. Regarding `CC(CNCC=C(c1ccccc1)c1ccccc1)c1ccccc1` (centres unmarked) [Compound 30, 3,3-diphenyl-N-(2-phenylpropyl)prop-2-en-1-amine], the inhibition at 4 µM was found to be 26.5% in experiment [1] and 49.1% in experiment [2]. For `CC(OCCC(c1ccccc1)c1ccccc1)c1ccccc1` (centres unmarked) [Compound 13], in that order: 32% and 28.9%.

`C[C@@H](NCC1CCCCC1)c1ccccc1` [Compound 38, (R)—N-(cyclohexylmethyl)-1-phenylethanamine]: the results for the inhibition at 4 µM in experiment [1] and in experiment [2] were 9.67% and 32.7%, respectively. For `CC(C)=CCC/C(C)=C/CC/C(C)=C/CN[C@H](C)c1ccccc1` [Compound 28, (2E,6E)-3,7,11-trimethyl-N—((R)-1-phenylethyl)dodeca-2,6,10-trien-1-amine], in that order: 34.9% and 38%. For `C[C@H](OCC=C(c1ccccc1)c1ccccc1)c1ccccc1` [Compound 23, (S)-(3-(1-phenylethoxy)prop-1-ene-1,1-diyl)dibenzene], in that order: 10.3% and -0.95%. The like results for `C/C=C(/CN[C@H](C)c1ccccc1)c1ccccc1` [Compound 37, (R,E)-2-phenyl-N-(1-phenylethyl)but-2-en-1-amine] were, in that order, 6.82% and 18.9%. Regarding `CC(NCC=C(c1ccccc1)c1ccccc1)c1ccc(Br)cc1` (centres unmarked) [Compound 26, N-(1-(4-bromophenyl)ethyl)-3,3-diphenylprop-2-en-1-amine], the values for the inhibition at 4 µM in experiment [1] and in experiment [2] were 44.8% and 43.5%, respectively. For `CC[C@@H](NCC=C(c1ccccc1)c1ccccc1)c1ccccc1` [Compound 46, (R)-3,3-diphenyl-N-(1-phenylpropyl)prop-2-en-1-amine], the figures for the inhibition at 4 µM in experiment [1] and in experiment [2] were 37.5% and 54%, respectively.

Consider `CC(NC(=O)CC(c1ccccc1)c1ccccc1)c1cccs1` (centres unmarked) [Compound 14, 3,3-diphenyl-N-(1-(thiophen-2-yl)ethyl)propanamide], for which the inhibition at 4 µM in experiment [1] came to 23.3%. On the same count and under the same terms, with `CC(NCCC(c1ccccc1)c1ccccc1)c1cccs1` (centres unmarked) [Compound 15, 3,3-diphenyl-N-(1-(thiophen-2-yl)ethyl)propan-1-amine hydrochloride] the figure was 25.1%. Regarding `C[C@@H](NC/C=C/c1ccccc1)c1cccc2ccccc12` [Compound 34, (R,E)-N-(1-(naphthalen-1-yl)ethyl)-3-phenylprop-2-en-1-amine], the results for the inhibition at 4 µM in experiment [1] and in experiment [2] were 7.94% and 18.9%, respectively. For `C[C@@H](NC/C=C/c1ccccc1)c1ccc2ccccc2c1` [Compound 35, (R,E)-N-(1-(naphthalen-2-yl)ethyl)-3-phenylprop-2-en-1-amine], in that order: 26.1% and -21.6%.

`C[C@@H](NC/C=C(\c1ccccc1)c1ccc(N)cc1)c1ccccc1` [Compound 56, (R,E)-4-(1-phenyl-3-((1-phenylethyl)amino)prop-1-en-1-yl)aniline]: the inhibition at 4 µM in experiment [1] is 17.3%; in experiment [2] it was -191%. The like results for `COC(=O)[C@H](NCC=C(c1ccccc1)c1ccccc1)c1ccc(F)cc1` [Compound 57, (R)-methyl 2-((3,3-diphenylallyl)amino)-2-(4-fluorophenyl)acetate] were, in that order, 12.7% and -105%. The like results for `C[C@@H](NCC=C(c1ccccc1)c1ccccc1)c1ccc([N+](=O)[O-])cc1` [Compound 47] were, in that order, 34% and 70.6%. Consider `C[C@H](NC(=O)CC(c1ccccc1)c1ccccc1)c1ccccc1` [Compound 04, (S)-3,3-diphenyl-N-(1-phenylethyl)propanamide], for which the inhibition at 4 µM in experiment [1] came out at 9.73%. Still for that read-out and setting: the result for `O=C(CC(c1ccccc1)c1ccccc1)NCc1ccccc1` [Compound 05, N-benzyl-3,3-diphenylpropanamide] reads 4.01%. In the case of `C[C@@H](NCC=C(c1ccccc1)c1ccccc1)c1ccc(F)cc1` [Compound 45, (R)—N-(1-(4-fluorophenyl)ethyl)-3,3-diphenylprop-2-en-1-amine], the inhibition at 4 µM in experiment [1] is 50%; in experiment [2] it was 43.5%.

In the case of `CC(NC(=O)CCc1ccccc1)c1ccccc1` (centres unmarked) [Compound 06, 3-phenyl-N-(1-phenylethyl)propanamide], the inhibition at 4 µM in experiment [1] was 28.9%. The same measure, in the same setting: with `C[C@@H](NC(=O)CC(c1ccccc1)c1ccccc1)c1ccccc1` [Compound 03, (R)-3,3-diphenyl-N-(1-phenylethyl)propanamide] the figure was 25.8%. `CC(C(=O)NCC(c1ccccc1)c1ccccc1)c1ccccc1` (centres unmarked) [Compound 02]: the inhibition at 4 µM in experiment [1] was determined as 13.2%.
